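These data come from cells grown in 96-well plates and exposed to compound for 48 hours at five concentrations. At the GI50, growth is halved.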 The source made the active and inactive calls. Cut-off read from the data, not from the text of the source: active = GI50 up to about 1.1 µM and inactive = higher.
Key:
Experiment in all cases: NCI tumour cell line growth inhibition, 48 h
786-0 = system: 786-0
A549 = system: A549
ACHN = system: ACHN
CAKI-1 = system: CAKI-1
CCRF-CEM = system: CCRF-CEM
COLO 205 = system: COLO 205
DLD-1 = system: DLD-1
DMS-114 = system: DMS-114
DMS-273 = system: DMS-273
EKVX = system: EKVX
HCC 2998 = system: HCC 2998
HCT-15 = system: HCT-15
HL-60 = system: HL-60
HOP-18 = system: HOP-18
HOP-62 = system: HOP-62
HOP-92 = system: HOP-92
HT-29 = system: HT-29
IGROV-1 = system: IGROV-1
K562 = system: K562
KM-20L2 = system: KM-20L2
KM12 = system: KM12
LOX IMVI = system: LOX IMVI
LXFL 529 = system: LXFL 529
M14 = system: M14
M19-MEL = system: M19-MEL
MOLT-4 = system: MOLT-4
Malme-3M = system: Malme-3M
NCI-H23 = system: NCI-H23
NCI-H460 = system: NCI-H460
NCI-H522 = system: NCI-H522
OVCAR-3 = system: OVCAR-3
OVCAR-4 = system: OVCAR-4
OVCAR-5 = system: OVCAR-5
OVCAR-8 = system: OVCAR-8
RPMI-8226 = system: RPMI-8226
RXF 393 = system: RXF 393
RXF 631 = system: RXF 631
SF-268 = system: SF-268
SF-295 = system: SF-295
SF-539 = system: SF-539
SK-MEL-28 = system: SK-MEL-28
SK-MEL-2 = system: SK-MEL-2
SK-MEL-5 = system: SK-MEL-5
SK-OV-3 = system: SK-OV-3
SN12C = system: SN12C
SNB-19 = system: SNB-19
SNB-75 = system: SNB-75
SW-620 = system: SW-620
TK-10 = system: TK-10
U-251 = system: U-251
UACC-257 = system: UACC-257
UACC-62 = system: UACC-62
UO-31 = system: UO-31
A498 = system: A498
HCT-116 = system: HCT-116
NCI-H226 = system: NCI-H226
SNB-78 = system: SNB-78

Measured: GI50

O=c1c(Sc2c(O)c3ccccc3c3ccccc3c2=O)c(O)c2ccccc2c2ccccc12
20.5 µM: HCT-15
inactive: 786-0 37.2 µM | A549 44.6 µM | ACHN 25.4 µM | CAKI-1 80.4 µM | CCRF-CEM 14 µM | COLO 205 41.6 µM | DLD-1 51.3 µM | DMS-114 25.4 µM | DMS-273 25.1 µM | EKVX 89.3 µM | HCC 2998 32.7 µM | HL-60 15.6 µM | HOP-18 24.2 µM | HOP-62 29.5 µM | HOP-92 29.3 µM | HT-29 66.2 µM | IGROV-1 47.2 µM | K562 33.7 µM | KM-20L2 37.4 µM | KM12 93.1 µM | LOX IMVI 25.1 µM | LXFL 529 30 µM | M14 46.6 µM | M19-MEL 31.8 µM | MOLT-4 16.8 µM | Malme-3M 25.2 µM | NCI-H23 23.7 µM | NCI-H460 17.6 µM | NCI-H522 13.4 µM | OVCAR-3 44.6 µM | OVCAR-4 41.8 µM | OVCAR-5 53.2 µM | OVCAR-8 45.3 µM | RPMI-8226 19.8 µM | RXF 393 50.7 µM | RXF 631 37.2 µM | SF-268 20 µM | SF-295 55.7 µM | SF-539 42.3 µM | SK-MEL-28 33 µM | SK-MEL-2 18.9 µM | SK-MEL-5 29.9 µM | SK-OV-3 > 100 µM | SN12C 20.9 µM | SNB-19 19.3 µM | SNB-75 > 100 µM | SW-620 63.8 µM | TK-10 > 100 µM | U-251 18.7 µM | UACC-257 41.9 µM | UACC-62 29.2 µM | UO-31 43.6 µM

NC(CCCNCc1ccccc1)C(=O)O (centres undefined)
> 100 µM: HCT-15
inactive: 786-0 > 100 µM | A498 > 100 µM | A549 > 100 µM | ACHN > 100 µM | CAKI-1 > 100 µM | CCRF-CEM > 100 µM | COLO 205 > 100 µM | DLD-1 > 100 µM | DMS-114 > 100 µM | DMS-273 > 100 µM | EKVX > 100 µM | HCT-116 > 100 µM | HL-60 > 100 µM | HOP-18 > 100 µM | HOP-62 > 100 µM | HOP-92 > 100 µM | HT-29 > 100 µM | IGROV-1 > 100 µM | K562 > 100 µM | KM-20L2 > 100 µM | KM12 > 100 µM | LOX IMVI > 100 µM | LXFL 529 > 100 µM | M14 > 100 µM | M19-MEL > 100 µM | MOLT-4 > 100 µM | Malme-3M > 100 µM | NCI-H226 > 100 µM | NCI-H23 > 100 µM | NCI-H460 > 100 µM | NCI-H522 > 100 µM | OVCAR-3 > 100 µM | OVCAR-4 > 100 µM | OVCAR-8 > 100 µM | RPMI-8226 > 100 µM | RXF 631 > 100 µM | SF-268 > 100 µM | SF-295 > 10 µM | SF-539 > 100 µM | SK-MEL-28 > 100 µM | SK-MEL-2 > 100 µM | SK-MEL-5 > 100 µM | SK-OV-3 > 100 µM | SN12C > 100 µM | SNB-19 > 100 µM | SNB-75 > 100 µM | SW-620 > 100 µM | TK-10 > 100 µM | UACC-257 > 100 µM | UACC-62 > 100 µM | UO-31 > 100 µM

C[C@]12CC[C@H](O)CC1=CC[C@@H]1C2CC[C@]2(C)Nc3c(cnn3-c3ccccc3)CC12 (some centres undefined)
active: DMS-273 0.869 µM | RPMI-8226 0.361 µM | RXF 393 0.441 µM | RXF 631 0.44 µM | SF-295 0.388 µM | SF-539 0.9 µM | SNB-75 1 µM
2.23 µM: HCT-15
inactive: 786-0 1.56 µM | A498 3.61 µM | A549 3.43 µM | ACHN 3.26 µM | CAKI-1 2.96 µM | CCRF-CEM 3.01 µM | DLD-1 3.52 µM | DMS-114 2.82 µM | EKVX 6.07 µM | HCC 2998 3.56 µM | HCT-116 3.01 µM | HL-60 1.77 µM | HOP-62 2.81 µM | HT-29 1.89 µM | IGROV-1 7.05 µM | K562 2.61 µM | KM-20L2 1.38 µM | KM12 2.05 µM | LXFL 529 4.06 µM | M14 6.34 µM | M19-MEL 5.35 µM | MOLT-4 1.5 µM | Malme-3M 4.35 µM | NCI-H226 8.57 µM | NCI-H23 3.88 µM | NCI-H460 2.72 µM | OVCAR-3 5.9 µM | OVCAR-4 7.23 µM | OVCAR-5 3.96 µM | OVCAR-8 6.87 µM | SK-MEL-28 2.86 µM | SK-MEL-2 9.73 µM | SK-MEL-5 3.24 µM | SK-OV-3 4.07 µM | SNB-78 8.2 µM | SW-620 2.6 µM | TK-10 9.48 µM | U-251 2.36 µM | UACC-257 3.78 µM | UACC-62 4.14 µM | UO-31 5.51 µM

COc1cc(CC(=O)O)c([N+](=O)[O-])cc1OC
> 100 µM: HCT-15
inactive: 786-0 > 100 µM | A498 > 100 µM | A549 > 100 µM | ACHN > 100 µM | CAKI-1 > 100 µM | CCRF-CEM > 100 µM | COLO 205 > 100 µM | DLD-1 > 100 µM | DMS-114 > 100 µM | DMS-273 > 100 µM | EKVX > 100 µM | HCC 2998 > 100 µM | HCT-116 > 100 µM | HL-60 > 100 µM | HOP-62 > 100 µM | HOP-92 > 100 µM | HT-29 > 100 µM | IGROV-1 > 100 µM | K562 > 100 µM | KM-20L2 > 100 µM | KM12 > 100 µM | LOX IMVI > 100 µM | LXFL 529 > 100 µM | M14 > 100 µM | M19-MEL > 100 µM | MOLT-4 > 100 µM | Malme-3M > 100 µM | NCI-H226 > 100 µM | NCI-H23 > 100 µM | NCI-H460 > 100 µM | NCI-H522 > 100 µM | OVCAR-3 > 100 µM | OVCAR-4 > 100 µM | OVCAR-5 > 100 µM | OVCAR-8 > 100 µM | RPMI-8226 > 100 µM | RXF 393 > 100 µM | RXF 631 > 100 µM | SF-268 > 100 µM | SF-295 > 100 µM | SF-539 > 100 µM | SK-MEL-28 > 100 µM | SK-MEL-2 > 100 µM | SK-OV-3 > 100 µM | SN12C > 100 µM | SNB-19 > 100 µM | SNB-75 > 100 µM | SNB-78 > 100 µM | SW-620 > 100 µM | TK-10 > 100 µM | U-251 > 100 µM | UACC-257 > 100 µM | UACC-62 > 100 µM | UO-31 > 100 µM

CC1=N/C(=C\c2ccc([N+](=O)[O-])cc2)C(=O)O1
> 100 µM: HCT-15
inactive: 786-0 > 100 µM | A498 > 100 µM | A549 > 100 µM | ACHN > 100 µM | COLO 205 > 100 µM | DLD-1 > 100 µM | DMS-114 > 100 µM | EKVX > 100 µM | HCC 2998 > 100 µM | HCT-116 > 100 µM | HL-60 > 100 µM | HOP-18 > 100 µM | HOP-62 > 100 µM | HOP-92 > 100 µM | HT-29 > 100 µM | IGROV-1 > 100 µM | K562 > 100 µM | KM-20L2 > 100 µM | KM12 > 100 µM | LXFL 529 > 100 µM | M14 > 100 µM | M19-MEL > 100 µM | MOLT-4 > 100 µM | Malme-3M > 100 µM | NCI-H23 > 100 µM | NCI-H460 > 100 µM | NCI-H522 > 100 µM | OVCAR-3 > 100 µM | OVCAR-4 > 100 µM | OVCAR-5 > 100 µM | OVCAR-8 > 100 µM | RPMI-8226 > 100 µM | RXF 393 > 100 µM | RXF 631 > 100 µM | SF-268 > 100 µM | SF-295 > 100 µM | SF-539 > 100 µM | SK-MEL-28 > 100 µM | SK-MEL-2 > 100 µM | SK-MEL-5 > 100 µM | SN12C > 100 µM | SNB-19 > 100 µM | SNB-78 > 100 µM | SW-620 > 100 µM | TK-10 > 100 µM | U-251 > 100 µM | UACC-257 > 100 µM | UACC-62 > 100 µM | UO-31 > 100 µM
